Activity calls are given as the source filed them. No cut-off for these calls is given here.
Columns and labels:
[1] = Photochromic activity assessed as photoinduced isomerization by measuring increase in intensity of the absorption at 568 to 574 nm by UV spectra
[2] = Cytotoxicity against human HeLa cells assessed as effect on cell viability at 2 mM measured after 24 hrs (Rvb (8% DMSO) = 79.08 +/- 10.78 %); assay type: cell-based; conditions: read-out: Activity
[3] = Cytotoxicity against human HeLa cells assessed as effect on cell viability at 500 uM measured after 24 hrs (Rvb (2% DMSO) = 93.5 +/- 3.19 %); assay type: cell-based; conditions: read-out: Activity
[4] = Cytotoxicity against human HeLa cells assessed as decrease in cell viability at 500 uM measured after 24 hrs relative to 2% DMSO control; assay type: cell-based; conditions: read-out: INH
HeLa [5] = experiment: Antioxidant activity in human HeLa cells assessed as increase in cellular thiol level at 500 uM measured after 24 hrs by Thiol-tracker violet molecular probe based assay; assay type: functional, cell-based
HeLa [6] = experiment: Antioxidant activity in human HeLa cells assessed as decrease in cytosolic ROS at 500 uM measured after 24 hrs by CellROX orange reagent based flow cytometry; assay type: functional, cell-based
HeLa [7] = experiment: Antioxidant activity in human HeLa cells assessed as increase in cellular thiol level at 500 uM measured after 24 hrs by Thiol-tracker violet molecular probe based assay relative to control; assay type: functional
[8] = Effect on biochemical parameters of gross oxidative status in human HeLa cells at 500 uM measured after 24 hrs relative to control; assay type: ADME, cell-based
HeLa [9] = experiment: Antioxidant activity in human HeLa cells assessed as decrease in mitochondrial ROS at 500 uM measured after 24 hrs by CellROX reagent based flow cytometry; assay type: functional, cell-based
HeLa [10] = experiment: Antioxidant activity in human HeLa cells assessed as decrease in cytosolic ROS at 500 uM measured after 24 hrs by CellROX orange reagent based flow cytometry relative to control; assay type: functional
HeLa [11] = experiment: Antioxidant activity in human HeLa cells assessed as decrease in nuclear ROS at 500 uM measured after 24 hrs by CellROX reagent based flow cytometry; assay type: functional, cell-based
[12] = Cytotoxicity against human HeLa cells assessed as decrease in cell viability at 2 mM measured after 24 hrs relative to 8% DMSO control; assay type: cell-based; conditions: read-out: INH
HeLa [13] = experiment: Antioxidant activity in human HeLa cells assessed as increase in cellular thiol level at 2 mM measured after 24 hrs by Thiol-tracker violet molecular probe based assay relative to control; assay type: functional
HeLa [14] = experiment: Antioxidant activity in human HeLa cells assessed as decrease in nuclear ROS at 500 uM measured after 24 hrs by CellROX reagent based flow cytometry relative to control; assay type: functional
HeLa [15] = experiment: Antioxidant activity in human HeLa cells assessed as decrease in mitochondrial ROS at 500 uM measured after 24 hrs by CellROX reagent based flow cytometry relative to control; assay type: functional
HeLa [16] = experiment: Cytotoxicity against human HeLa cells assessed as decrease in cell viability measured after 24 hrs; assay type: cell-based

Row | Compound | Activity [1] | viability at 24 h, 2000 µM [2] [%] | viability at 24 h, 500 µM [3] [%] | cytotoxicity at 24 h, 500 µM [4] [%] | Activity (HeLa [5]) | inhibition (HeLa [6]) | Activity (HeLa [7]) [%] | Activity [8] | inhibition (HeLa [9]) | inhibition at 500 µM (HeLa [10]) [%] | inhibition (HeLa [11]) | cytotoxicity at 24 h, 2000 µM [12] [%] | Activity (HeLa [13]) [%] | inhibition at 500 µM (HeLa [14]) [%] | inhibition at 500 µM (HeLa [15]) [%] | IC50 (HeLa [16]) [µM]
1 | CN1c2ccccc2C(C)(C)C12C=Cc1c(ccc3ccc(O)cc13)O2 (stereo unspecified) | inactive | 66.5 | 84.5 | 11.9 | – | – | – | – | – | – | – | – | – | – | – | –
2 | CN1c2ccccc2C(C)(C)C12C=Cc1c(ccc3ccc(OC(=O)CCCCC4CCSS4)cc13)O2 (stereo unspecified) | inactive | 73.4 | 95 | – | Active | inactive | 35 | Non-Toxic | – | – | – | – | – | – | – | –
3 | COc1ccc2c(c1)C(C)(C)C1(C=Cc3c(ccc4ccc(OC(=O)CCCCC5CCSS5)cc34)O1)N2C (stereo unspecified) | Active | 77.9 | 89.3 | 8.3 | Active | – | 30 | – | inactive | 78 | inactive | – | – | – | – | –
4 | O=C(O)CCCCC1CCSS1 (stereo not drawn) [LIPOIC ACID, ALPHA] | – | 51.8 | 94.7 | – | – | – | – | – | – | – | – | 32.7 | 90 | 31 | 31 | –
5 | COc1ccc2c(c1)C(C)(C)C1(C=Cc3c(ccc4ccc(O)cc34)O1)N2C (stereo unspecified) | – | 5 | 4.19 | 98.4 | – | – | – | – | – | – | – | 93.7 | – | – | – | 46.2

Reference: ChEMBL document CHEMBL4673323, “Novel molecular hybrids of indoline spiropyrans and α-lipoic acid as potential photopharmacological agents: Synthesis, structure, photochromic and biological properties” (Bioorg Med Chem Lett, 2021)
